Species on record: Rattus norvegicus
Experiment: Open TG-GATES - Regimen: Single
Type: toxicity, organism-based, Sprague-Dawley
Set-up: regimen Single, gender Male, age 6 weeks
Conditions: in vivo, po, 0 mg/kg, route gavage, dose level Control; for APTT / Bas / Eos / Fbg / Hb / Ht / Lym / MCH / MCHC / MCV / Mono / Neu / PT / Plat / RBC / Ret / WBC: tissue Blood; for KIDNEY_L / KIDNEY_R / KIDNEY_TOTAL: tissue Kidney; for LIVER: tissue Liver; for A/G / ALP / ALT / AST / BUN / CRE / Ca / Cl / DBIL / GLC / IP / K / LDH / Na / PL / RALB / TBIL / TC / TG / TP / gamma-GTP: tissue Plasma

## CN(C)[C@@H]1C(O)=C(C(N)=O)C(=O)[C@@]2(O)C(O)=C3C(=O)c4c(O)cccc4[C@@](C)(O)[C@H]3C[C@@H]12 [TETRACYCLINE]
3 h
  TERMINAL_BW: 187 g
  APTT: 16.4 s
  Bas: 0%
  Eos: 0.6%
  Fbg: 206.2 mg/dL
  Hb: 13.1 g/dL
  Ht: 39.4%
  Lym: 78.4%
  MCH: 22 pg
  MCHC: 33.1%
  MCV: 66.3 fL
  Mono: 8.6%
  Neu: 12.8%
  PT: 12.1 s
  Plat: 105.5 x10_4/uL
  RBC: 595.2 x10_4/ul
  Ret: 11%
  WBC: 95.1 x10_2/uL
  KIDNEY_L: 0.9 g
  KIDNEY_R: 0.9 g
  KIDNEY_TOTAL: 1.8 g
  LIVER: 9 g
  A/G: 2.2
  ALP: 813 IU/L
  ALT: 35.8 IU/L
  AST: 70.8 IU/L
  BUN: 12.6 mg/dL
  CRE: 0.5 mg/dL
  Ca: 11.1 mg/dL
  Cl: 103.6 meq/L
  DBIL: 0.02 mg/dL
  GLC: 187.8 mg/dL
  IP: 10.2 mg/dL
  K: 5.2 meq/L
  LDH: 87.6 IU/L
  Na: 137.6 meq/L
  PL: 143.2 mg/dL
  RALB: 3.7 g/dL
  TBIL: 0.4 mg/dL
  TC: 84 mg/dL
  TG: 42.4 mg/dL
  TP: 5.4 g/dL
  gamma-GTP: 1.4 IU/L
6 h
  TERMINAL_BW: 181.3 g
  APTT: 16.7 s
  Bas: 0%
  Eos: 0.8%
  Fbg: 200.2 mg/dL
  Hb: 13.1 g/dL
  Ht: 39.1%
  Lym: 81.6%
  MCH: 22 pg
  MCHC: 33.4%
  MCV: 65.9 fL
  Mono: 5.2%
  Neu: 13%
  PT: 12.3 s
  Plat: 101.8 x10_4/uL
  RBC: 593.8 x10_4/ul
  Ret: 10.7%
  WBC: 118.1 x10_2/uL
  KIDNEY_L: 0.8 g
  KIDNEY_R: 0.8 g
  KIDNEY_TOTAL: 1.7 g
  LIVER: 8.3 g
  A/G: 2.2
  ALP: 900.4 IU/L
  ALT: 36.2 IU/L
  AST: 68.8 IU/L
  BUN: 9 mg/dL
  CRE: 0.4 mg/dL
  Ca: 10.6 mg/dL
  Cl: 105.2 meq/L
  DBIL: 0.018 mg/dL
  GLC: 180 mg/dL
  IP: 10.5 mg/dL
  K: 5.2 meq/L
  LDH: 77.6 IU/L
  Na: 136.4 meq/L
  PL: 130.4 mg/dL
  RALB: 3.7 g/dL
  TBIL: 0.3 mg/dL
  TC: 76 mg/dL
  TG: 36 mg/dL
  TP: 5.3 g/dL
  gamma-GTP: 1.2 IU/L
9 h
  TERMINAL_BW: 179.4 g
  APTT: 16.9 s
  Bas: 0%
  Eos: 0.6%
  Fbg: 211.6 mg/dL
  Hb: 13.3 g/dL
  Ht: 40.3%
  Lym: 78%
  MCH: 21.7 pg
  MCHC: 33%
  MCV: 65.7 fL
  Mono: 6.2%
  Neu: 15.4%
  PT: 12.8 s
  Plat: 98.9 x10_4/uL
  RBC: 613.2 x10_4/ul
  Ret: 9.1%
  WBC: 72 x10_2/uL
  KIDNEY_L: 0.9 g
  KIDNEY_R: 0.9 g
  KIDNEY_TOTAL: 1.8 g
  LIVER: 7.5 g
  A/G: 2.3
  ALP: 844.2 IU/L
  ALT: 32.6 IU/L
  AST: 64.2 IU/L
  BUN: 10.6 mg/dL
  CRE: 0.4 mg/dL
  Ca: 10.4 mg/dL
  Cl: 106.2 meq/L
  DBIL: 0.024 mg/dL
  GLC: 176.4 mg/dL
  IP: 10.6 mg/dL
  K: 5.3 meq/L
  LDH: 81.2 IU/L
  Na: 138.8 meq/L
  PL: 123.6 mg/dL
  RALB: 3.8 g/dL
  TBIL: 0.3 mg/dL
  TC: 71.2 mg/dL
  TG: 23.6 mg/dL
  TP: 5.5 g/dL
  gamma-GTP: 1.4 IU/L
24 h
  TERMINAL_BW: 200.1 g
  APTT: 16.6 s
  Bas: 0%
  Eos: 0.8%
  Fbg: 205.2 mg/dL
  Hb: 13.2 g/dL
  Ht: 39.7%
  Lym: 76.6%
  MCH: 22.1 pg
  MCHC: 33.2%
  MCV: 66.7 fL
  Mono: 8.2%
  Neu: 14.8%
  PT: 11.9 s
  Plat: 112.5 x10_4/uL
  RBC: 596.4 x10_4/ul
  Ret: 9.8%
  WBC: 81.9 x10_2/uL
  KIDNEY_L: 0.9 g
  KIDNEY_R: 0.9 g
  KIDNEY_TOTAL: 1.8 g
  LIVER: 10.2 g
  A/G: 2.3
  ALP: 1007 IU/L
  ALT: 45.4 IU/L
  AST: 76.6 IU/L
  BUN: 17.4 mg/dL
  CRE: 0.5 mg/dL
  Ca: 11.1 mg/dL
  Cl: 105.2 meq/L
  DBIL: 0.008 mg/dL
  GLC: 188.6 mg/dL
  IP: 9 mg/dL
  K: 4.9 meq/L
  LDH: 87.6 IU/L
  Na: 140.2 meq/L
  PL: 155 mg/dL
  RALB: 3.9 g/dL
  TBIL: 0.4 mg/dL
  TC: 84.2 mg/dL
  TG: 69.2 mg/dL
  TP: 5.7 g/dL
  gamma-GTP: 0.8 IU/L

Reference: ChEMBL document CHEMBL3885861, “Open TG-GATES”
